Reference: ChEMBL document CHEMBL2331182, “Discovery of a small-molecule antiviral targeting the HIV-1 matrix protein” (Bioorg Med Chem Lett, 2013)

How the values were obtained:
[1] = molecular target: T1, Structural capsid protein (Human immunodeficiency virus 1, UniProt Q76129); assay: Inhibition of HIV1 capsid
[2] = molecular target: T1, Structural capsid protein; assay: Binding affinity to HIV1 capsid

T1 sequence (Q76129 whole entry): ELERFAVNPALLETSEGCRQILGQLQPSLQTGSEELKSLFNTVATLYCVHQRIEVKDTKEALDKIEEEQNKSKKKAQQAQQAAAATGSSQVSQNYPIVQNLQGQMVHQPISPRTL

## Cc1ccc(NC(=O)NCCSCc2ccc(CN(C)C)o2)cc1Cl
[1]
  IC50: 60 µM
[2]
  Kd: 800 µM
